According to ChEMBL document CHEMBL3879914, “Inhibitors of central nervous system vasoactive inhibitory peptide receptor 2” (2014):

Tests used:
[1] = molecular target: T1, Vasoactive intestinal polypeptide receptor 2 (Homo sapiens) (UniProt P41587); assay: (§1) Antagonist activity at recombinant human N-terminal signal peptide/FLAG epitope-tagged VIPR2 expressed in HEK293 cells co-expressing CAMYEL assessed as inhibition of VIP-induced cAMP accumulation at 5 uM preincubated for 5 mins with luciferin, coelenterazine H followed by VIP addition measured after 5 mins by BRET assay relative to control; assay type: functional, cell-based
T1 sequence (whole entry): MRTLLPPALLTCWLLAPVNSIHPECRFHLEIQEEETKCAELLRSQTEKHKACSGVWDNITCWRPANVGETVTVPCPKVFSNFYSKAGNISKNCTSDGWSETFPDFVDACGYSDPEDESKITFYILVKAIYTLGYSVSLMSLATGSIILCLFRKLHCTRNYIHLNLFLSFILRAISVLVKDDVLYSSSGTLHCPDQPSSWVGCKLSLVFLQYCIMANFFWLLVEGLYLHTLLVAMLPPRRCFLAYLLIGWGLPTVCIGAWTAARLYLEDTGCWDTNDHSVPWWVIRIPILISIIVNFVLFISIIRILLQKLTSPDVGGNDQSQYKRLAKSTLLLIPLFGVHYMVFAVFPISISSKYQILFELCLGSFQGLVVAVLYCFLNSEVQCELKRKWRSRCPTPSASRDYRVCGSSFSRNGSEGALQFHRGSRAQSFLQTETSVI

[2] = molecular target: T1, Vasoactive intestinal polypeptide receptor 2 (Homo sapiens); assay: (§2) Antagonist activity at recombinant human N-terminal signal peptide/FLAG epitope-tagged Rluc8-fused VIPR2 expressed in HEK293 cells assessed as inhibition of VIP-induced human mVenus-beta-arrestin2 binding at 1 uM preincubated for 5 mins with luciferin, coelenterazine H followed by VIP addition measured after 5 mins by BRET assay relative to control; assay type: cell-based
[3] = molecular target: T1, Vasoactive intestinal polypeptide receptor 2 (Homo sapiens); assay: as §1, with “at 0.5” for “at 5”; assay type: functional, cell-based
[4] = molecular target: T1, Vasoactive intestinal polypeptide receptor 2 (Homo sapiens); assay: as §2, with “5” for “1”; assay type: cell-based
[5] = molecular target: T1, Vasoactive intestinal polypeptide receptor 2 (Homo sapiens); assay: as §2, with “0.5” for “1”; assay type: cell-based
[6] = molecular target: T1, Vasoactive intestinal polypeptide receptor 2 (Homo sapiens); assay: as §1, with “at 1” for “at 5”; assay type: functional, cell-based

Row | SMILES | inhibition [1] [%] | inhibition [2] [%] | inhibition [3] [%] | inhibition [4] [%] | inhibition [5] [%] | inhibition [6] [%]
1 | O=C(CCCCl)NC[C@@H](O)C[C@@H](Cc1ccccc1)C(=O)N[C@H]1c2ccccc2C[C@H]1O | 15.9 | 24.3 | 16.4 | 21.1 | 18.5 to 19.2 | 18.2
2 | O=C(CCN1C(=O)C=CC1=O)NC[C@@H](O)C[C@@H](Cc1ccccc1)C(=O)N[C@H]1c2ccccc2C[C@H]1O | 18.6 | 15.2 | 15.5 | -3.1 | 7.75 to 9.9 | 19
3 | O=C(NC[C@@H](O)C[C@@H](Cc1ccccc1)C(=O)N[C@H]1c2ccccc2C[C@H]1O)c1ccccc1[N+](=O)[O-] | 9.1 | 35.1 | 17.6 | 26.1 | 17.6 to 36.4 | 14.3
4 | CCN(CC)C(=O)[C@H](Cc1ccccc1)C[C@H](O)CNS(=O)(=O)c1ccc([N+](=O)[O-])cc1 | -4.3 | 7.9 | -8.1 | 5.7 | -5.4 to 0.7 | -6.1
5 | O=C(N[C@H]1c2ccccc2C[C@H]1O)[C@H](Cc1ccccc1)C[C@H](O)CNS(=O)(=O)c1ccc(C(F)(F)F)cc1 | 98.5 | 83 | 42 | 92.9 | 58.1 to 95.7 | 63.1
6 | C[C@H](CC(C)(C)C)NC(=O)[C@@H](Cc1ccccc1)C[C@H](O)CNS(=O)(=O)c1ccc([N+](=O)[O-])cc1 | 7.4 | 27.9 | 6.5 | 20.2 | 13.8 to 36.8 | 19.6
7 | O=C([C@H](Cc1ccccc1)C[C@H](O)CNS(=O)(=O)c1ccc([N+](=O)[O-])cc1)N1CCOCC1 | 2.4 | 8.9 | -3.8 | -1.2 | -4.3 to 0.6 | -1.6
8 | O=C(NC1CCCC1)[C@@H](Cc1ccccc1)C[C@H](O)CNS(=O)(=O)c1ccc([N+](=O)[O-])cc1 | -0.3 | -6.1 | -7.5 | 1.3 | -5.7 to 0.5 | -2.5
9 | NC[C@@H](O)C[C@@H](Cc1ccccc1)C(=O)N[C@H]1c2ccccc2C[C@H]1O | 7.4 to 15.2 | 1.4 | 11.8 | 19.7 | 3.7 to 17.4 | 7.4 to 15.9
10 | CC(=O)Nc1ccc(S(=O)(=O)NC[C@H](C[C@@H](Cc2ccccc2)C(=O)N[C@H]2c3ccccc3C[C@H]2OC(C)=O)OC(C)=O)cc1 | -5.8 | 0.2 | -8.7 | 9.7 | 0.5 to 1.95 | -8.7
11 | CS(=O)(=O)NC[C@@H](O)C[C@@H](Cc1ccccc1)C(=O)N[C@H]1c2ccccc2C[C@H]1O | 18.5 | 31.6 | 21.4 | 23.4 | 17.3 to 20.9 | 21.9
12 | O=C(Nc1ccc(S(=O)(=O)NC[C@@H](O)C[C@@H](Cc2ccccc2)C(=O)N[C@H]2c3ccccc3C[C@H]2O)cc1)C1CC1 | 34.3 | -0.3 | -2.4 | -4.2 | 6.4 to 15.1 | 23
13 | CN(C)c1ccc(S(=O)(=O)NC[C@@H](O)C[C@@H](Cc2ccccc2)C(=O)N[C@H]2c3ccccc3C[C@H]2O)cc1 | -3.4 | -1.6 | 9.4 | 8.7 | 2.65 to 4.2 | -1.4
14 | CC(C)c1cc(C(C)C)c(S(=O)(=O)NC[C@@H](O)C[C@@H](Cc2ccccc2)C(=O)N[C@H]2c3ccccc3C[C@H]2O)c(C(C)C)c1 | 90 | 30.9 | 19.5 | 8.3 | 29.7 to 49.1 | 18.6
15 | C#CCNC(=O)[C@@H](Cc1ccccc1)C[C@H](O)CNS(=O)(=O)c1ccc([N+](=O)[O-])cc1 | 13.5 | 3.4 | 3.1 | 7 | 3.3 to 10.2 | 7.3
16 | O=C(N[C@H]1c2ccccc2C[C@H]1O)[C@H](Cc1ccccc1)C[C@H](O)CNS(=O)(=O)c1cccc([N+](=O)[O-])c1 | 21.3 | 35.1 | 18.4 | 33.4 | 24.2 to 27.4 | 15.2

Row | SMILES | inhibition [1] [%] | inhibition [2] [%] | inhibition [3] [%] | inhibition [4] [%] | inhibition [5] [%] | inhibition [6] [%]
17 | Cc1ccc(S(=O)(=O)NC[C@@H](O)C[C@@H](Cc2ccccc2)C(=O)N[C@H]2c3ccccc3C[C@H]2O)c(C)c1 | 23.3 | 20.3 | 14.1 | 31.8 | 2.8 to 27.6 | 10.9
18 | CC(C)CNc1ccc(S(=O)(=O)NC[C@@H](O)C[C@@H](Cc2ccccc2)C(=O)N[C@H]2c3ccccc3C[C@H]2O)cc1 | 27.4 | 5.2 | 21.6 | 11.9 | 10.2 to 19.6 | 16.7
19 | O=C(NC[C@@H](O)C[C@@H](Cc1ccccc1)C(=O)N[C@H]1c2ccccc2C[C@H]1O)c1cccc(Br)c1 | 20.3 | 6.8 | 17.4 | 5.2 | -3.8 to 12.8 | 18.5
20 | CCCCNC(=O)[C@H](Cc1ccccc1)C[C@H](O)CNS(=O)(=O)c1ccc([N+](=O)[O-])cc1 | 5.3 | 1.9 | 0.9 | 13.8 | -5.6 to 9.55 | 5.1
21 | O=C(NC[C@@H](O)C[C@@H](Cc1ccccc1)C(=O)N[C@H]1c2ccccc2C[C@H]1O)c1ccccn1 | 20.3 | 32.7 | 14.9 | 5.5 | 6.1 to 12.9 | 17.7
22 | O=C([C@@H](Cc1ccccc1)C[C@H](O)CNS(=O)(=O)c1ccc([N+](=O)[O-])cc1)N1CCCCC1 | 9.4 | 9.2 | 14.2 | 14.9 | 9.5 to 12.2 | 14.2
23 | O=C(NC1CCCC1)c1ccc(S(=O)(=O)NC[C@@H](O)C[C@@H](Cc2ccccc2)C(=O)N[C@H]2c3ccccc3C[C@H]2O)cc1 | 31.8 | 0.5 | 15.2 | 0.1 | 3.9 to 15.9 | 19.6
24 | CNC(=O)c1ccc(S(=O)(=O)NC[C@@H](O)C[C@@H](Cc2ccccc2)C(=O)N[C@H]2c3ccccc3C[C@H]2O)cc1 | 69.5 | -1.6 | 13.8 | -1 | 6.3 to 34.2 | 22.1
25 | O=C(Cc1cccc(Cl)c1)NC[C@@H](O)C[C@@H](Cc1ccccc1)C(=O)N[C@H]1c2ccccc2C[C@H]1O | 26.5 | 20.1 | 14.4 | 17.2 | 11.3 to 21.9 | 16
26 | COc1cc(C(=O)NC[C@@H](O)C[C@@H](Cc2ccccc2)C(=O)N[C@H]2c3ccccc3C[C@H]2O)cc(OC)c1OC | 9.3 | 37.2 | 15.6 | 18 | 13.7 to 29.6 | 20
27 | O=C(N[C@H]1c2ccccc2C[C@H]1O)[C@H](Cc1ccccc1)C[C@H](O)CNS(=O)(=O)c1ccccc1F | 28.3 | 28.3 | 28.6 | 52 | 5.3 to 40.1 | 22.3
28 | O=C(NN1CCCCC1)[C@@H](Cc1ccccc1)C[C@H](O)CNS(=O)(=O)c1ccc([N+](=O)[O-])cc1 | 6 | 3.3 | 9.2 | 4.7 | -0.9 to 5.35 | 12.3
29 | CCCCNC(=O)c1ccc(S(=O)(=O)NC[C@@H](O)C[C@@H](Cc2ccccc2)C(=O)N[C@H]2c3ccccc3C[C@H]2O)cc1 | 20.6 | 2.9 | -0.4 | -5.5 | -0.4 to 7.55 | 5.9
30 | NC(=O)[C@@H](Cc1ccccc1)C[C@H](O)CNS(=O)(=O)c1ccc([N+](=O)[O-])cc1 | 9.7 | -9.8 | 14.6 | 7 | 3.5 to 8.35 | 12.6
31 | CC(=O)Nc1ccc(S(=O)(=O)NC[C@@H](O)C[C@@H](Cc2ccccc2)C(=O)N[C@H]2c3ccccc3C[C@H]2O)cc1 | 19.1 | 4.9 | 15.2 | 4.2 | -1.2 to 11.7 | 19.1
